Experimental data published in publication PMC5980303 (CPT: Pharmacometrics & Systems Pharmacology, 2018).
Values joined by “and” are separate entries in the source; they are usually repeats but may differ in a detail not shown here. Identical values can stand only once. Marks after values point to notes of the source that are not given here.

Tests used:
[1] = cited from earlier work
[2] = cited from earlier work; remark: listed apart in the source
[3] = doses of 15 mg or 20 mg in the absence of food; cited from earlier work
[4] = Integrated population pharmacokinetic model
[5] = final population PK model, comedication factor on CL/F

θCL/F, VTE >72 h (study-specific factor on CL/F) ([4]; VTE prevention, >72 hours, relative to VTE treatment (factor = 1)): 1.29 Proportion
θCL/F, VTE ≤72 h (study-specific factor on CL/F) ([4]; VTE prevention, ≤72 hours, relative to VTE treatment (factor = 1)): 1.04 Proportion
θCL/F, ACS (study-specific factor on CL/F) ([4]; acute coronary syndrome population, relative to VTE treatment (factor = 1)): 1.14 Proportion
θCL/F, AF (study-specific factor on CL/F) ([4]; atrial fibrillation population, relative to VTE treatment (factor = 1)): 0.85 Proportion and 0.849 Proportion
D50 (dose parameter of relative bioavailability function) ([4]; final population PK model): 14.4 mg
ω2 CL/F (interindividual variability) ([4]; final population PK model): 0.167 (10.3) ^d Variance
ω2 CL/F, V/F ([4]; final population PK model): 0.0674 Covariance
ω2 ka (interindividual variability) ([4]; final population PK model): 0.628 (32.8) ^d Variance
ω^2 V/F (interindividual variability) ([4]; final population PK model): 0.0391 (25.7) ^d Variance
ka (first-order absorption rate constant) ([4]; final population PK model (run 12), 4,918 patients, oral rivaroxaban): 0.821 h⁻¹
θCL/F, CYP3A4 inducer [4, 5]: 1.30 Proportion
θCL/F, Medium CYP3A4 inhibitor [4, 5]: 0.863 Proportion
θCL/F, Strong CYP3A4 inhibitor [4, 5]: 0.978 Proportion
θCL/F, Weak CYP3A4 inhibitor [4, 5]: 0.939 Proportion
θCL/F, PGP ([4]; final population PK model, comedication with P-gp inhibitor, factor on CL/F): 0.966 Proportion
θCL/F, CrCL ([4]; final population PK model, effect of Tietz-truncated CrCL on CL/F): 0.406 Power
θV/F, Age ([4]; final population PK model, effect of age on V/F): −0.189 Power
θV/F, Sex ([4]; final population PK model, effect of gender (female) on V/F): 0.889 Proportion
θCL/F, weight ([4]; final population PK model, effect of weight on CL/F): −0.278 Power
θV/F, weight ([4]; final population PK model, effect of weight on V/F): 0.216 Power
Fmax (relative bioavailability as a function of dose) ([4]; final population PK model, fixed, relative bioavailability fixed at 1.0 for a 10 mg dose): 1.25 Proportion
σ2 prop (residual variability) ([4]; final population PK model, proportional residual error): 0.203 (10.3) ^d Variance
Fmin (relative bioavailability as a function of dose) ([4]; final population PK model, relative to 10 mg dose (F = 1)): 0.590 Proportion
AUC increase in the presence of strong CYP3A4 inhibitors ([4]; integrated population PK model): 1.02 fold
Structure (SMILES): O=C(NC[C@H]1CN(c2ccc(N3CCOCC3=O)cc2)C(=O)O1)c1ccc(Cl)s1 [rivaroxaban]
Biopharmaceutics Classification System class [1]: class 2
permeability (BCS classification) [1]: high permeability
solubility (BCS classification) [1]: low solubility
fraction of the dose eliminated renally as unchanged drug [2]: Approximately one‐third
bioavailability and absorption rate vs dose [3]: less than dose proportional
